Experimental findings from patent US4539149A, “β-Lactam antibacterial agents” (Beecham Group p.l.c., priority 1981, dated 1985) are described below.

≈ marks a conversion by molar mass, not a printed value. Structures can show the parent of a compound that is named as a salt.

In the first test the test system is P. mirabilis 889. Briefly: MIC against P. mirabilis 889. The class given is cell-based. The settings on record: P. mirabilis 889.
With `CC(=O)OCC1=C(C(=O)O)N2C(=O)[C@@](NC=O)(NC(=O)C(NC(N)=O)c3cccs3)[C@H]2SC1` (single isomer, unassigned) [Example 52 (Isomer 1), 7β-[2-[(Aminocarbonyl)amino]-2-(thien-2-yl)acetamido]-7α-formamidocephalosporanic acid, sodium salt (Isomer 1)], the “MIC against P. mirabilis 889” value worked out at 125 µg/mL.

As to `CC(=O)OCC1=C(C(=O)O)N2C(=O)[C@@](NC=O)(NC(=O)C(NC(N)=O)c3cccs3)[C@H]2SC1` (single isomer, unassigned) [Example 52 (Isomer 2), 7β-[2-[(Aminocarbonyl)amino]-2-(thien-2-yl)acetamido]-7α-formamidocephalosporanic acid, sodium salt (Isomer 2)], the “MIC against P. mirabilis 889” value was 25 µg/mL.

The same test, now with this note: Proteus mirabilis, 889, P. mirabilis 889.
For `CCN1CCN(C(=O)NC(C(=O)N[C@]2(NC=O)C(=O)N3C(C(=O)O)=C(CSc4nnnn4C)CS[C@@H]32)c2ccc(OC(C)=O)c(OC(C)=O)c2)C(=O)C1=O` (single isomer, unassigned) [Example 57 (isomer 2), 7β-[2-(3,4-Diacetoxyphenyl)-2-[(4-ethyl-2,3-dioxopiperazin-1-yl)carbonylamino]acetamido]-7α-formamido-3-[(1-methyl-1H-tetrazol-5-yl)thiomethyl]ceph-3-em-4-carboxylic acid, sodium salt, isomer 2], inhibition of growth (MIC) required 0.1 µg/mL.

As for `CC1(C)S[C@H]2N(C(=O)[C@@]2(NC=O)NC(=O)COc2ccccc2)[C@H]1C(=O)O` [Example 1, 6α-Formamido-6β-phenoxyacetamido penicillanic acid sodium salt], the MIC (in general, the least concentration at which growth counts as inhibited) is over 100 µg/mL.

`CC1(C)S[C@H]2N(C(=O)[C@@]2(NC=O)NC(=O)C(C(=O)O)c2ccccc2)[C@H]1C(=O)O` (stereo partly drawn) [Example 2, 6α-Formamido-6β-(2-carboxy-2-phenylacetamido)penicillanic acid, di-sodium salt] gave an MIC of 50 µg/mL.

In turn, `CC1(C)S[C@H]2N(C(=O)[C@@]2(NC=O)NC(=O)C(C(=O)O)c2ccsc2)[C@H]1C(=O)O` (stereo partly drawn) [Example 3, 6α-Formamido-6β-[2-carboxy-2-(3-thienyl)acetamido]penicillanic acid, di-sodium salt] yielded an MIC of 25 µg/mL.

As to `CCN1CCN(C(=O)N[C@@H](C(=O)N[C@]2(NC=O)C(=O)N3[C@@H](C(=O)O)C(C)(C)S[C@@H]32)c2ccccc2)C(=O)C1=O` [Example 4, 6α-Formamido-6β-[D-2-[(4-ethyl-2,3-dioxopiperazin-1-yl)carbonylamino]-2-phenylacetamido]penicillanic acid, sodium salt], it took 0.2 µg/mL to inhibit growth (MIC).

Regarding `CCN1CCN(C(=O)N[C@H](C(=O)N[C@]2(NC=O)C(=O)N3[C@@H](C(=O)O)C(C)(C)S[C@@H]32)c2ccc(O)cc2)C(=O)C1=O` [Example 6, 6α-Formamido-6β-[L-2-[(4-ethyl-2,3-dioxopiperazin-1-yl)carbonylamino]-2-(4-hydroxyphenyl)acetamido]penicillanic acid, sodium salt], it took 125 µg/mL to inhibit growth (MIC).

Regarding `CC1(C)S[C@H]2N(C(=O)[C@@]2(NC=O)NC(=O)[C@H](NC(=O)Nc2cnc(Nc3ccccc3)nc2O)c2ccccc2)[C@H]1C(=O)O` [Example 7, 6α-Formamido-6β-[D-2-(2-phenylamino-4-hydroxypyrimidin-5-ylureido)-2-phenylacetamido]penicillanic acid, di-sodium salt], inhibition of growth (MIC) required 5 µg/mL.

With `CC1(C)S[C@H]2N(C(=O)[C@@]2(NC=O)NC(=O)[C@H](N)c2ccccc2)[C@H]1C(=O)O` [Example 8, 6α-Formamido-6β-(D-2-amino-2-phenylacetamido)penicillanic acid], the MIC was determined as 25 µg/mL (≈ 63.7 µM).

In turn, `CC1(C)S[C@H]2N(C(=O)[C@@]2(NC=O)NC(=O)[C@H](N)c2ccc(O)cc2)[C@H]1C(=O)O` [Example 9, 6α-Formamido-6β-[D-2-amino-2-(4-hydroxyphenyl)acetamido]penicillanic acid] registered an MIC of 50 µg/mL (≈ 122 µM).

`CN(C(=O)C=Cc1ccccc1)C(=O)N[C@@H](C(=O)N[C@]1(NC=O)C(=O)N2[C@@H](C(=O)O)C(C)(C)S[C@@H]21)c1ccccc1` [Example 10, 6α-Formamido-6β-[D-2-(3-cinnamoyl-3-methylureido)-2-phenylacetamido]penicillanic acid, sodium salt] returned an MIC of 1 µg/mL.

The molecule `CC1(C)S[C@H]2N(C(=O)[C@@]2(NC=O)NC(=O)[C@H](NC(=O)N2CCNC2=O)c2ccccc2)[C@H]1C(=O)O` [Example 11, 6α-Formamido-6β-[D-2-(2-oxoimidazolidin-1-ylcarbonylamino)-2-phenylacetamido]penicillanic acid sodium salt] came in with an MIC of 1 µg/mL.

The molecule `CC1(C)S[C@H]2N(C(=O)[C@@]2(NC=O)NC(=O)[C@H](NC(=O)N2CCN(S(C)(=O)=O)C2=O)c2ccccc2)[C@H]1C(=O)O` [Example 12, 6α-Formamido-6β-[D-2-(3-methylsulphonyl-2-oxoimidazolidin-1-ylcarbonylamino)-2-penylacetamido]penicillanic acid, sodium salt] registered a minimum inhibitory concentration (MIC) of 0.5 µg/mL.

On to `CN(C(=O)N[C@@H](C(=O)N[C@]1(NC=O)C(=O)N2[C@@H](C(=O)O)C(C)(C)S[C@@H]21)c1ccccc1)C(=O)c1cccs1` [Example 13, 6α-Formamido-6β-[D-2-[3-methyl-3-(2-thienylcarbonyl)ureido]-2-phenylacetamido]penicillanic acid, sodium salt], for which the MIC amounted to 2.5 µg/mL.

`CC1(C)S[C@H]2N(C(=O)[C@@]2(NC=O)NC(=O)[C@H](NC(=O)c2cnc3ncnn3c2O)c2ccccc2)[C@H]1C(=O)O` [Example 14, 6α-Formamido-6β-[D-2-(7-hydroxy-1,2,4-triazolo[2,3-a]pyrimidin-6-ylcarboxamido)-2-phenylacetamido]penicillanic acid, disodium salt] came in with an MIC of over 100 µg/mL.

In turn, `CC1(C)S[C@H]2N(C(=O)[C@@]2(NC=O)NC(=O)[C@H](NC(=O)c2cnc(NCc3ccccc3)nc2O)c2ccccc2)[C@H]1C(=O)O` [Example 15, 6α-Formamido-6β-[D-2-(2-benzylamino-4-hydroxypyrimidin-5-ylcarboxamido)-2-phenylacetamido]penicillanic acid, disodium salt] registered an MIC of 50 µg/mL.

On to `CC1(C)S[C@H]2N(C(=O)[C@@]2(NC=O)NC(=O)[C@H](NC(=O)N2CCNC2=O)c2ccc(O)cc2)[C@H]1C(=O)O` [Example 16, 6α-Formamido-6β-[D-2-(2-oxoimidazolidin-1-ylcarbonylamino)-2-(4-hydroxyphenyl)acetamido]penicillanic acid, sodium salt], for which the MIC stood at 0.5 µg/mL.

For `CN(C(=O)C=Cc1ccccc1)C(=O)N[C@@H](C(=O)N[C@]1(NC=O)C(=O)N2[C@@H](C(=O)O)C(C)(C)S[C@@H]21)c1ccc(O)cc1` [Example 17, 6α-Formamido-6β-[D-2-(3-cinnamoyl-3-methylureido)-2-(4-hydroxyphenyl)acetamido]penicillanic acid, sodium salt], the MIC is 2.5 µg/mL.

For `CCN1CCN(C(=O)N[C@@H](C(=O)N[C@]2(NC=O)C(=O)N3[C@@H](C(=O)O)C(C)(C)S[C@@H]32)c2ccc(OC(C)=O)c(OC(C)=O)c2)C(=O)C1=O` [Example 18, 6β-[D-2-[(4-Ethyl-2,3-dioxopiperazin-1-yl)carbonylamino]-2-(3,4-diacetoxyphenyl)acetamido]-6α-formamidopenicillanic acid, sodium salt], it took 0.5 µg/mL to inhibit growth (MIC).
